Measurements from article PMC9841527 (Journal of Medicinal Chemistry, 2022).

How the values were obtained:
[1] = molecular target: Dnmt3a-Dnmt3L (Mus musculus, UniProt O88508); type: biochemical
[2] = molecular target: DNMT1 (Homo sapiens, UniProt P26358); experiment: Selectivity assay, DNMT1; type: biochemical; conditions: [I] = 10 μM, [SAM] = 5.5 μM, 37 °C
[3] = molecular target: T1, CamA (Clostridioides difficile, UniProt Q183J3); type: biochemical
T1 sequence (Q183J3 1-577): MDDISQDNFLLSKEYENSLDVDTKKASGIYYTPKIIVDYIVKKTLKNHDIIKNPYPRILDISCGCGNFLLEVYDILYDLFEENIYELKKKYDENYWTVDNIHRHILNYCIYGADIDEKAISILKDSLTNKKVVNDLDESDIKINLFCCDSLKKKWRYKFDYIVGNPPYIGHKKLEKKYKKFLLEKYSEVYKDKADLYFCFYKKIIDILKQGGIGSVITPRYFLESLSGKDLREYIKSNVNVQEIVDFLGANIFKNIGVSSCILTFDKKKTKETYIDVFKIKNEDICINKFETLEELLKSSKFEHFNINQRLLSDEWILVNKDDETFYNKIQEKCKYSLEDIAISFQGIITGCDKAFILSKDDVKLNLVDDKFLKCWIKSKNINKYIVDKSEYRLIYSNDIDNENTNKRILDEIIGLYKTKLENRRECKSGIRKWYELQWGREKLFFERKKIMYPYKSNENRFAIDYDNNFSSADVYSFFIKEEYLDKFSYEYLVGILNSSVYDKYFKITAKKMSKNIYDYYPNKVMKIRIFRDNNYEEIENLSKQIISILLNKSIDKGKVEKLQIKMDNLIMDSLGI

[4] = molecular target: T2, G9a (Homo sapiens, UniProt Q96KQ7); experiment: Selectivity assay, G9a; type: biochemical; conditions: compound 10 μM, 3H-SAM 1 μM
T2 sequence (Q96KQ7 1-1210): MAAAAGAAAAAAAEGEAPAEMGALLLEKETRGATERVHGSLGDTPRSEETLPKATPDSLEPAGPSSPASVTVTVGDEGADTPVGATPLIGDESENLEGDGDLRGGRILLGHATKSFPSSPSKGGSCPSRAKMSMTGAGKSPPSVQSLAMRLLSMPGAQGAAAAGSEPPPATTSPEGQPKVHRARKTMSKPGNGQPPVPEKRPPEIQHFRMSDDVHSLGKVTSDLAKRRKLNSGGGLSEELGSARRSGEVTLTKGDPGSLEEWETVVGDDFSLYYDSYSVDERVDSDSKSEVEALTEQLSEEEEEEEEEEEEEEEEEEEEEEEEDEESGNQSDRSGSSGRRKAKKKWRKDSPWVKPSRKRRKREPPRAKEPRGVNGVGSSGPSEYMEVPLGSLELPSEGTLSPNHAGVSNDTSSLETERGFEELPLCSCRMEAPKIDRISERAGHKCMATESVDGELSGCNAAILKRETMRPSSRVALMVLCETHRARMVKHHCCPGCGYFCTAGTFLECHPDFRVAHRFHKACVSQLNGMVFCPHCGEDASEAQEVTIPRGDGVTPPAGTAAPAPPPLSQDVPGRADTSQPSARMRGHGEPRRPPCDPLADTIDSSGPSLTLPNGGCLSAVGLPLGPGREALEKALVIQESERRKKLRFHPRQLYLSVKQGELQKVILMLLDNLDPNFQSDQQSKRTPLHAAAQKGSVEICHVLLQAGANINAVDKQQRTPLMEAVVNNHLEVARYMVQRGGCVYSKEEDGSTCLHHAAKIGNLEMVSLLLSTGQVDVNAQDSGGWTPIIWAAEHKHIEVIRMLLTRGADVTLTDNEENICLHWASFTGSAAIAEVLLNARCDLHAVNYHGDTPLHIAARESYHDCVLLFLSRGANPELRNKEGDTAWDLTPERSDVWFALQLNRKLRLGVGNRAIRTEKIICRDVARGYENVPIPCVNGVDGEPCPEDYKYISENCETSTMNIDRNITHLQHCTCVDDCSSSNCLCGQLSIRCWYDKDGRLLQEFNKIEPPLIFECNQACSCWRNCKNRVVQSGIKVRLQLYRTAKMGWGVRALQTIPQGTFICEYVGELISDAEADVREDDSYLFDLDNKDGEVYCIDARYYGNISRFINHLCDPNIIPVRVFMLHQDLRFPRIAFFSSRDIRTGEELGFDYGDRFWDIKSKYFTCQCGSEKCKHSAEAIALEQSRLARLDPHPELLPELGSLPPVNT

[5] = molecular target: T3, MettL16 (Homo sapiens, UniProt Q86W50); experiment: Selectivity assay, MettL16; type: biochemical; conditions: [I] = 10 μM, [SAM] = 160 μM or 30 μM
T3 sequence (Q86W50 1-562): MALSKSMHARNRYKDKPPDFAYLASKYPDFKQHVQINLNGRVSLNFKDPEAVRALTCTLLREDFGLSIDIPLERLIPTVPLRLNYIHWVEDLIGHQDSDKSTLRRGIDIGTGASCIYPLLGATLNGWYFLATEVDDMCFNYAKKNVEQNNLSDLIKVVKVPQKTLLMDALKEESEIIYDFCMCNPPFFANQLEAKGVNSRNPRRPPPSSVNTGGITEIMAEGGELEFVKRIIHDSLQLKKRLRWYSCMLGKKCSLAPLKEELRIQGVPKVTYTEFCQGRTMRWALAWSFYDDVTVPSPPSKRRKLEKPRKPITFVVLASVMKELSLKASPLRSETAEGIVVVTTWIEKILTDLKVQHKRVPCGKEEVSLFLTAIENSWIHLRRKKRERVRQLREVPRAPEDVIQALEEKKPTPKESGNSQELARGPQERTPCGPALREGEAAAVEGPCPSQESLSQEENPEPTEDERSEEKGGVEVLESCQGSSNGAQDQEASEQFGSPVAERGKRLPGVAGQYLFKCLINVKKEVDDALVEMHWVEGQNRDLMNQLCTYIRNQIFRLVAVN

[6] = molecular target: PRMT1 (Homo sapiens, UniProt Q99873); experiment: Selectivity assay, PRMT1; type: biochemical; conditions: compound 10 μM, 3H-SAM 1 μM
Chain of PRMT1 (Q99873 whole entry): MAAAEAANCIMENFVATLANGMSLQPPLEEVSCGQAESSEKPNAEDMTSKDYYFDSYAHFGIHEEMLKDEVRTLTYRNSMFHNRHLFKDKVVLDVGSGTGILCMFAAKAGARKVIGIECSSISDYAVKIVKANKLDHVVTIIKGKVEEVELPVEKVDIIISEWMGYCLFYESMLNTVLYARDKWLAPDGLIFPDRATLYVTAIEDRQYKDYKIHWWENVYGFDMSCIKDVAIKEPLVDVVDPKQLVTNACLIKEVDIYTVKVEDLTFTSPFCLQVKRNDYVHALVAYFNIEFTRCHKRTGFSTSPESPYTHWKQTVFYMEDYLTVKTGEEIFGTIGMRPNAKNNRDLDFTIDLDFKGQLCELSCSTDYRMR

[7] = molecular target: MettL3-MettL14 (Homo sapiens, UniProt Q86U44); experiment: Selectivity assay, MettL3-MettL14; type: biochemical; conditions: [I] = 10 μM, [SAM] = 20 μM, 5 mM NaCl, or CamA conditions
Chain of MettL3-MettL14 (Q86U44 whole entry): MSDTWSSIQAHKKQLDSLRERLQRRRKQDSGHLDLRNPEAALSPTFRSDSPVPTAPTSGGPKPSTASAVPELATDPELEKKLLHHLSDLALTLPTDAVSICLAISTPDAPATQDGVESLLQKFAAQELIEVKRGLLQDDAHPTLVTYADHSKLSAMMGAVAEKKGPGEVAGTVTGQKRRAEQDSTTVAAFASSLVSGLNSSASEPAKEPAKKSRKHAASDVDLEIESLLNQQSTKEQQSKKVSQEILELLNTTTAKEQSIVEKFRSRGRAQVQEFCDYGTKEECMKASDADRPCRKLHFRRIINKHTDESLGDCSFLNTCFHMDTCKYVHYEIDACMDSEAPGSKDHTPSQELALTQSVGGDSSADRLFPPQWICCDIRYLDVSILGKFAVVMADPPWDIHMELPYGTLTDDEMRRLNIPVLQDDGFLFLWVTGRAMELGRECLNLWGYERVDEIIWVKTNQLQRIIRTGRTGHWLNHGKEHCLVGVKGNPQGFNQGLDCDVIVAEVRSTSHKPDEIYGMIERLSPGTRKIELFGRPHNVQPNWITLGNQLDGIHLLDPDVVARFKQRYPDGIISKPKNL
Chain of MettL3-MettL14 (Q9HCE5 whole entry partner): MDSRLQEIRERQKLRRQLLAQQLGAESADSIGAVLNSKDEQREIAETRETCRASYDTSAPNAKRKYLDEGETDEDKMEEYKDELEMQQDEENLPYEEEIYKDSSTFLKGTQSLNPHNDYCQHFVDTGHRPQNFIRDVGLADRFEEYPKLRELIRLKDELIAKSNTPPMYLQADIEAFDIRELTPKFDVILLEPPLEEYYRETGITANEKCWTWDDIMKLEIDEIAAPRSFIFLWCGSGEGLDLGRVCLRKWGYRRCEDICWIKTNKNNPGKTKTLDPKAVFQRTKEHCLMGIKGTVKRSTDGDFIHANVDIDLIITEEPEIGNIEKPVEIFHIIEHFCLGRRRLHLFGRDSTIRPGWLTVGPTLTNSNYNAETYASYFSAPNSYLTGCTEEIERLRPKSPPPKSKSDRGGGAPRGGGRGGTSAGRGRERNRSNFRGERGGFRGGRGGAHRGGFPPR

[8] = molecular target: DOT1L (Homo sapiens, UniProt Q8TEK3); experiment: Selectivity assay, DOT1L; type: biochemical; conditions: compound 10 μM, 3H-SAM 1 μM
Chain of DOT1L (Q8TEK3 whole entry): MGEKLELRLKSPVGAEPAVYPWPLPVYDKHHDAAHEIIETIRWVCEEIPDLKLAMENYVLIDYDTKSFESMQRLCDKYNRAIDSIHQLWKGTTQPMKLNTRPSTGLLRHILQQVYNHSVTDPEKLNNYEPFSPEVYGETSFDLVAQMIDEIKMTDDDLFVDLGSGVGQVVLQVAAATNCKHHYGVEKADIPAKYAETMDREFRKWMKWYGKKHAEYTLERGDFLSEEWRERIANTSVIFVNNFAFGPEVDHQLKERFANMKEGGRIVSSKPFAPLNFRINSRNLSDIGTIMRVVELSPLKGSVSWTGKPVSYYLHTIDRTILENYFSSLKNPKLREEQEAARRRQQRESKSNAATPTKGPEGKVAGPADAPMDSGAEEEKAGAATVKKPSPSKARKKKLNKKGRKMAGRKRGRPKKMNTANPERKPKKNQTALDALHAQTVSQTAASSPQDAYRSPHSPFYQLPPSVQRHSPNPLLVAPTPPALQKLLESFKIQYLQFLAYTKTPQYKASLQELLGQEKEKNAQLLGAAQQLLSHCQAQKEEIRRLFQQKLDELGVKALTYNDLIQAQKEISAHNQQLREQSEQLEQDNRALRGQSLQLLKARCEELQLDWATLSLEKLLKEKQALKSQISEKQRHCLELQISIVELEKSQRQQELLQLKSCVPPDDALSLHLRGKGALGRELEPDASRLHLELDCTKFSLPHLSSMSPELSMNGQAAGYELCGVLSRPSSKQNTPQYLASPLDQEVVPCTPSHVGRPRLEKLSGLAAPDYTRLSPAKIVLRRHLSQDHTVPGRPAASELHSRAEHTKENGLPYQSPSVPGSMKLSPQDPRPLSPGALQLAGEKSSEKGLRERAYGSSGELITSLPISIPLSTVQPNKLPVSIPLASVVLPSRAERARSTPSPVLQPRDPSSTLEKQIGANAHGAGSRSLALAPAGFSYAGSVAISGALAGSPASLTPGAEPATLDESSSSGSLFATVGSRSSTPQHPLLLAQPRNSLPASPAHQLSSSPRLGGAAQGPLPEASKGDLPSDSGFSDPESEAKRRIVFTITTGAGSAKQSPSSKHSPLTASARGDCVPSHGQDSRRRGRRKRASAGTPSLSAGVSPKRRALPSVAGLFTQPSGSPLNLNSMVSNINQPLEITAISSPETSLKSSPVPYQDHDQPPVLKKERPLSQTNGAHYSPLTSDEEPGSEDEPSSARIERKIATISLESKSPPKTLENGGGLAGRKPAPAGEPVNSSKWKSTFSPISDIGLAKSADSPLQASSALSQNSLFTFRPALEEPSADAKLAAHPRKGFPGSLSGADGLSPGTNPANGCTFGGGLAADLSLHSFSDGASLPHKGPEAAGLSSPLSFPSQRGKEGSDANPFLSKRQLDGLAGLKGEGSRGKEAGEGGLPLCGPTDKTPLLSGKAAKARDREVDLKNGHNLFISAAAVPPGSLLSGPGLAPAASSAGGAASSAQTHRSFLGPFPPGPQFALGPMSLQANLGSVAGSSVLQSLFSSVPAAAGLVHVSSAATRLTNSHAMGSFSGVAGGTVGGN

[9] = molecular target: PCIF1 (Homo sapiens, UniProt Q9H4Z3); type: biochemical
Chain of PCIF1 (Q9H4Z3 whole entry): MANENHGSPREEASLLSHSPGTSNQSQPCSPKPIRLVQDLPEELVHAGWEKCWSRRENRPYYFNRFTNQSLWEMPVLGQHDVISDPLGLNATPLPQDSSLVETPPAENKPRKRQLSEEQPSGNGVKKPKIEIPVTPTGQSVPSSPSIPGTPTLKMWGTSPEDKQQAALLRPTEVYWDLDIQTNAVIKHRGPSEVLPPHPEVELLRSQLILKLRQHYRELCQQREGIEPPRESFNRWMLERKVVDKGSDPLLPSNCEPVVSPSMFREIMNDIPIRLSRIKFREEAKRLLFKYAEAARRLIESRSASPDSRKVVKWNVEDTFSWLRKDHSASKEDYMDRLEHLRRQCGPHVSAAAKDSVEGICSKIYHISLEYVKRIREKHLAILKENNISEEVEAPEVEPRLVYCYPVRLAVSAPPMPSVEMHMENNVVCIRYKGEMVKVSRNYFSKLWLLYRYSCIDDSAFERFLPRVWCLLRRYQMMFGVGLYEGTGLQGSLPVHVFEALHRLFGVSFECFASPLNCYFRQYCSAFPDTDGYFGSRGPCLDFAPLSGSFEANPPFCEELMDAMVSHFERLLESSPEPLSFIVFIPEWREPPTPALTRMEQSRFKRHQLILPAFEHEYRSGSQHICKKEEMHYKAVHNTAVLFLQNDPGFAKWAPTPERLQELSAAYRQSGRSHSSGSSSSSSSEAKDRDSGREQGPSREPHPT

[10] = molecular target: EZH2 complex (Homo sapiens, UniProt Q15910); experiment: Selectivity assay, EZH2 complex; type: biochemical; conditions: compound 10 μM, 3H-SAM 1 μM
[11] = molecular target: CcrM (Caulobacter vibrioides, UniProt P0CAW2); type: biochemical, Caulobacter crescentus

Chain of DNMT1 (P26358 351-1600): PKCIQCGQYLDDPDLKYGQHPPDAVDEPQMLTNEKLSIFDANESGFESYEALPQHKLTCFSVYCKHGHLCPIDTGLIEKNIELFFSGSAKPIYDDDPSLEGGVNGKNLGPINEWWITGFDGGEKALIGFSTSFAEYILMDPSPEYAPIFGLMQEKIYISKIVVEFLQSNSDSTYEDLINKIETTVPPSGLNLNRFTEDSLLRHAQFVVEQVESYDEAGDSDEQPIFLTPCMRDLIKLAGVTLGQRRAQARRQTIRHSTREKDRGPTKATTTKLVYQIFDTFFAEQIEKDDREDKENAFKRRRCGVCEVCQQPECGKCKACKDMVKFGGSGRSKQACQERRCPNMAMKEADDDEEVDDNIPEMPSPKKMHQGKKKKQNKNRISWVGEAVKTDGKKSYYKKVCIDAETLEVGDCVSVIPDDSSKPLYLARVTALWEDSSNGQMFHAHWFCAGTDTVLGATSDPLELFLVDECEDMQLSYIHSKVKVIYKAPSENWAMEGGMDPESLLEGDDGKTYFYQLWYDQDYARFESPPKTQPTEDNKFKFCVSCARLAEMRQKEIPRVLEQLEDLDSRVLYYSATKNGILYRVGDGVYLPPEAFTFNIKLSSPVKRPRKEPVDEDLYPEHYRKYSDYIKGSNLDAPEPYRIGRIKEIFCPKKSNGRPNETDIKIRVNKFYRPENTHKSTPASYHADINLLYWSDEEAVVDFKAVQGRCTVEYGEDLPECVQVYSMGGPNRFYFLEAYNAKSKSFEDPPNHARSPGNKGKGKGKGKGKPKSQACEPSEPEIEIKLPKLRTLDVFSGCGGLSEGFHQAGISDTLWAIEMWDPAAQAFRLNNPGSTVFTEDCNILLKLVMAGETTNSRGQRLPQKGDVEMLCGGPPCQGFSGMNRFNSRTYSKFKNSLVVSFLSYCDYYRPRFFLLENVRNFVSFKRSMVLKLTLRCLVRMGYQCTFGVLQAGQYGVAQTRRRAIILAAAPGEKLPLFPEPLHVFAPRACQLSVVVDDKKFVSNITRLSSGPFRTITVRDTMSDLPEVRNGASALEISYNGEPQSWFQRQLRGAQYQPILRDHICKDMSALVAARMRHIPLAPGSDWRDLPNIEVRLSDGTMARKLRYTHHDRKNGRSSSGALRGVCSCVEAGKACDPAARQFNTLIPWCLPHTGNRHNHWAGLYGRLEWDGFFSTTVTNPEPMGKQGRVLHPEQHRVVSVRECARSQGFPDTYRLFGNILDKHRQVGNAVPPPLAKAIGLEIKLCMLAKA

SMILES | inhibition of Dnmt3a-Dnmt3L [1] | inhibition of DNMT1 [2] | lower IC50 value, fold [3] | inhibition of G9a [4] | inhibition of MettL16 [5] | inhibition of PRMT1 [6] | inhibition of MettL3-MettL14 [7] | inhibition of DOT1L [8] | inhibition of PCIF1 [9] | inhibition of EZH2 complex [10] | inhibition of CcrM [11] | higher potency, fold [3]
OC[C@H]1O[C@@H](n2cnc3c(NCCCc4ccc(O)cc4)ncnc32)[C@H](O)[C@@H]1O [Compound 16, (2R,3S,4R,5R)-2-(Hydroxymethyl)-5-(6-((3-(4-hydroxyphenyl)propyl)amino)-9H-purin-9-yl)tetrahydrofuran-3,4-diol] | none of them showed any significant inhibition | none of them showed any significant inhibition | ~2.7 X | none of them showed any significant inhibition | none of them showed any significant inhibition | none of them showed any significant inhibition | none of them showed any significant inhibition | none of them showed any significant inhibition | none of them showed any significant inhibition | none of them showed any significant inhibition | none of them showed any significant inhibition | 
CC(C)(C)OC(=O)N1CCC(CCCNc2ncnc3c2ncn3[C@@H]2O[C@H](CO)[C@@H](O)[C@H]2O)CC1 [Compound 39, tert-Butyl-4-(3-((9-((2R,3R,4S,5R)-3,4-dihydroxy-5-(hydroxymethyl)tetrahydrofuran-2-yl)-9H-purin-6-yl)amino)propyl)piperidine-1-carboxylate] | none of them showed any significant inhibition | none of them showed any significant inhibition |  | none of them showed any significant inhibition | none of them showed any significant inhibition | none of them showed any significant inhibition | none of them showed any significant inhibition | none of them showed any significant inhibition | none of them showed any significant inhibition | none of them showed any significant inhibition | none of them showed any significant inhibition | 12 ×
